ChEMBL document CHEMBL1157204, “Synthesis and structure-activity relationship of histone deacetylase (HDAC) inhibitors with triazole-linked cap group” (Bioorg Med Chem, 2008)

Experiments:
[1] = system: DU-145; experiment: Viability of human DU145 cells after 72 hrs by trypan blue staining; type: functional, cell-based; details: DU-145, 72 h
[2] = target: Histone deacetylase; experiment: Inhibition of human HDAC in HeLa cells by flour de lys assay; type: cell-based
[3] = system: DU-145; experiment: Viability of human DU145 cells after 72 hrs by MTS assay; type: functional, cell-based; details: DU-145, 72 h

Work on `O=C(CCCCCCC(=O)Nc1ccccc1)NO` [VORINOSTAT] yielded an EC50 [1] of 2120 nM.

In the case of `COc1ccc2cc(-c3cn(CCCCCCC(=O)NO)nn3)ccc2c1`, the IC50 [2] is reported as 15.3 nM, the EC50 [1] is reported as 7760 nM and the EC50 [3] is reported as 3990 nM.

`O=C(CCCCCn1cc(-c2ccc(-c3ccncc3)cc2)nn1)NO` was tested, and the IC50 [2] was 2.3 nM, the EC50 [1] was 4720 nM and the EC50 [3] was 3070 nM.

In the case of `O=C(CCCCCn1cc(-c2cccnc2)nn1)NO`, the IC50 [2] is reported as 287.2 nM.

With `COc1cccc(-c2cn(CCCCCC(=O)NO)nn2)c1` the IC50 [2] was 13.9 nM.

`Cc1ccccc1-c1cn(CCCCCC(=O)NO)nn1` was tested, and the IC50 [2] was 17.4 nM.

`COc1ccc2cc(-c3cn(CCCCCC(=O)NO)nn3)ccc2c1` was tested, and the IC50 [2] was 1.8 nM, the EC50 [1] was 3950 nM and the EC50 [3] was 2600 nM.

Work on `O=C(CCCCCCn1cc(-c2ccccc2)nn1)NO` yielded an IC50 [2] of 9.6 nM.

For `O=C(CCCCCn1cc(-c2ccccc2)nn1)NO`, the IC50 [2] was 14.2 nM.

Molecule `O=C(CCCCCn1cc(-c2ccc3cccnc3c2)nn1)NO` has an IC50 [2] of 151.5 nM.

Work on `COc1cccc(OC)c1-c1cn(CCCCCC(=O)NO)nn1` yielded an IC50 [2] of 315.9 nM.

`O=C(CCCCCCn1cc(-c2cccc(-c3ccccc3)c2)nn1)NO` showed an IC50 [2] of 5.4 nM.

`O=C(CCCCCCn1cc(-c2ccc(-c3ccncc3)cc2)nn1)NO` was tested, and the IC50 [2] was 16.6 nM.

For `O=C(CCCCCn1cc(-c2ccncc2)nn1)NO`, the IC50 [2] was 112.5 nM.

Molecule `O=C(CCCCCCn1cc(-c2ccccn2)nn1)NO` has an IC50 [2] of 23.9 nM.

`O=C(CCCCCn1cc(-c2ccc3ccccc3n2)nn1)NO` was tested, and the IC50 [2] was 2.1 nM, the EC50 [1] was 2250 nM and the EC50 [3] was 2460 nM.

With `O=C(CCCCCn1cc(-c2ccccc2-c2ccccc2)nn1)NO` the IC50 [2] was 162.6 nM.

`Cc1ccc(-c2cn(CCCCCC(=O)NO)nn2)cc1` showed an IC50 [2] of 43.4 nM.

In the case of `CN(C)c1ccc(-c2cn(CCCCCCC(=O)NO)nn2)cc1`, the IC50 [2] is reported as 106.1 nM.

With `O=C(CCCCCn1cc(-c2cccs2)nn1)NO` the IC50 [2] was 31.7 nM.

With `COc1ccc(-c2cn(CCCCCC(=O)NO)nn2)cc1` the IC50 [2] was 2.09 nM.

In the case of `CN(C)c1ccc(-c2cn(CCCCCC(=O)NO)nn2)cc1`, the IC50 [2] is reported as 4.3 nM.

For `COc1ccccc1-c1cn(CCCCCC(=O)NO)nn1`, the IC50 [2] was 76 nM.

`O=C(CCCCCn1cc(-c2ccc(-c3ccccc3)cc2)nn1)NO` was tested, and the IC50 [2] was 52.4 nM.

In the case of `O=C(CCCCCn1cc(-c2cccc(-c3ccccc3)c2)nn1)NO`, the IC50 [2] is reported as 1.9 nM.

Molecule `Cc1cccc(-c2cn(CCCCCC(=O)NO)nn2)c1` has an IC50 [2] of 31.9 nM.
